Data set [1] deals with S. pneumonia. Kind of data set: microbe, parasite or virus in culture. The settings on record: Streptococcus pneumoniae, read-out: Minimum Inhibitory concentration.
In data set [2] the test system is E. coli.
In data set [3] the test system is B. subtilis. Kind of data set: microbe, parasite or virus in culture. Conditions: Bacillus subtilis, read-out: Minimum Inhibitory concentration.
Data set [4] relates to S. aureus. The data set can be described thus: microbe, parasite or virus in culture. The settings on record: Staphylococcus aureus, read-out: Minimum Inhibitory concentration.
Data set [5] deals with B. subtilis.
For data set [6], the system named is E. coli. Kind of data set: microbe, parasite or virus in culture. Conditions: Escherichia coli, read-out: Minimum Inhibitory concentration.
Data set [7] has as its system Kleibsella pneumonia. Kind of data set: organism not typed. The settings on record: read-out: Minimum Inhibitory concentration.
The test system of data set [8] is S. mutans. Kind of data set: microbe, parasite or virus in culture. Conditions: Streptococcus mutans, read-out: Minimum Inhibitory concentration.
Data set [9] concerns S. mutans.
The subject of data set [10] is Kleibsella pneumonia.
The next data set has as its system Staphylococcus aureus. The data set can be described thus: microbe, parasite or virus in culture. The data set is classed as cell-based. Conditions: S. aureus, 30 μl in 6 mm well, ssTAMP 100 μg/ml, Kanamycin 10 μg/ml, 24 hours, mean±SD, n=3. Here is the method: (§1) Microbial cultures were procured from the microbiology department, College of Pharmacy, King Saud University, Riyadh. Strains were grown aerobically at 37° C. with shaking in Muller Hilton media.
(§2) The agar diffusion method was used to examine the synthesized ssTAMP's antibacterial activity. Pure colonies of Bacillus subtilis, Streptococcus pneumonia, Staphalycoccus aureus, Streptococcus mutans, Escherichia coli, and Kleibsella pneumonia were used for antibacterial susceptibility testing according to Clinical Laboratory Standards Institute (CLSI) 2021 guidelines by using a modified Kirby-Bauer disk diffusion technique. In brief, homogeneous colonies were chosen from each microbial strain and grown on Mullar Hilton broth at log phase. 0.5 McFarland standard culture was used to spread on to the Mullar Hilton agar plates. Freshly prepared 30 μl each of Kanamycin 10 μg/ml and ssTAMP 100 μg/ml was poured into 6 mm diameter well, blank well with equivalent amount of saline served as a […]. The plates were incubated for 24 hours, and the diameter of the inhibition zone was measured to determine if the findings were susceptible or resistant. The full analysis was carried out three times.
(§3) The agar diffusion method was used to test antimicrobial susceptibility of sSTAMP against B. Subtilis, S. Pneumoniae, S. Aureus, S. Mutans, E. Coli, and Kleibsella pneumonia strains (FIG. 1).

The next data set deals with Streptococcus pneumonia. The data set can be described thus: microbe, parasite or virus in culture. The data set is classed as cell-based. The settings on record: S. pneumonia, 30 μl in 6 mm well, ssTAMP 100 μg/ml, Kanamycin 10 μg/ml, 24 hours, mean±SD, n=3. The procedure: as §1, §2, §3
The test system of the next data set is Streptococcus mutans. The data set can be described thus: microbe, parasite or virus in culture. The data set is classed as cell-based. The settings on record: S. mutans, 30 μl in 6 mm well, ssTAMP 100 μg/ml, Kanamycin 10 μg/ml, 24 hours, mean±SD, n=3. The procedure:
as §1, §2, §3

In the next data set the test system is Escherichia coli. Kind of data set: microbe, parasite or virus in culture. Conditions: E. coli, 30 μl in 6 mm well, ssTAMP 100 μg/ml, Kanamycin 10 μg/ml, 24 hours, mean±SD, n=3. Format: cell-based. The procedure: as §1, §2, §3
The test system of another data set is Bacillus subtilis. The data set can be described thus: microbe, parasite or virus in culture. Format: cell-based. The settings on record: B. subtilis, 30 μl in 6 mm well, ssTAMP 100 μg/ml, Kanamycin 10 μg/ml, 24 hours, mean±SD, n=3. Here is the method: as §1, §2, §3
Data set [11] concerns Kleibsella pneumonia. The data set can be described thus: organism not typed. The data set is classed as cell-based. The settings on record: 30 μl in 6 mm well, ssTAMP 100 μg/ml, Kanamycin 10 μg/ml, 24 hours, mean±SD, n=3. Here is the method: as §1, §2, §3
The test system of data set [12] is S. pneumonia.
Another data set has as its system A549 lung cancer cells. The data set is classed as cell-based. The settings on record: human, 24 h. The procedure: (§4) MCF-7 and A549 cells were cultured under aseptic conditions at 37° C. and 5% CO2 using Dulbecco's Modified Eagle's Medium (DMEM), accompanied with 1% mixture of “Penicillin-Streptomycin”, and 10% Fetal Bovine Serum (FBS). The cells were processed and grown in a sterile environment and all the procedures were done in a biosafety cabinet. The cells were harvested using 0.25% trypsin containing EDTA and phenol red, once they reached around 80% confluency. To test the in-vitro toxicity of the antimicrobial peptide, the harvested cells were seeded in 96 well plates for conducting a cell viability assay using MTT (3-(4,5-dimethylthiazol-2-yl)-2,5-diphenyl tetrazolium bromide).
(§5) In order to investigate the in-vitro cytotoxicity of ssTAMP using the MTT assay, cell viability was carried out in MCF-7 and A549 cells. To achieve a cell density of 5×10^5 cells/mL, trypsin was introduced to the cells during their exponential phase of growth. After that, 100 μL of media and the cell suspension (15000 cells/well) were placed on a flat-bottomed microplate, where they were left to attach to the bottom overnight. The following day, 10 μL of freshly prepared medium containing ssTAMP concentrations ranging from 7.81 to 1000 µg/mL was added to the preexisting medium. As a negative control, a triplicate of untreated, FBS-free DMEM were used. Each product's dilution was tested three times. After 24 hours, the media was carefully removed from the wells. After that, 10 μL of MTT solution (5 mg/mL in PBS) and 90 μL of the medium were added. After that, this combination was incubated for 4 hours at room temperature. The medium and MTT in the culture fluid were then drawn out, leaving the formazan crystal precipitate. Formazan was dissolved for 15 minutes at room temperature in a […]. At 570 nm, the absorbance was measured (Synergy HT, BioTek Inst., VT, USA). Cell viability was calculated as a percentage of the absorbance when compared with negative control considered as 100%. The cytotoxic effects of ssTAMP on MCF-7 and A549 cells were expressed as IC50 values.
(§6) The percentage cell viabilities of MCF-7 breast cancer cells and A549 lung cancer cells against varying concentrations of ssTAMP are presented in FIGS. 3A-3B. […] The cytotoxicity starts to appear at the lowest concentration of ssTAMP used (7.81 μg/mL in MCF-7, and 15.62 μg/mL in A549). The effect pattern of the ssTAMP in both the cell lines is similar up to the concentration of 250 μg/mL. However MCF-7 appear to be more sensitive at higher concentrations of ssTAMP above 250 μg/mL.

The test system of data set [13] is MCF-7 breast cancer cells. Format: cell-based. Conditions: human, 24 h. The procedure: as §4, §5, §6
For data set [14], the system named is S. aureus.
Setting [15] is: E. coli, microdilution, overnight 37° C., mean±SD, n=3.
[16] abbreviates: B. subtilis, microdilution, overnight 37° C., mean±SD, n=3.
Where [17] appears, read: S. mutans, microdilution, overnight 37° C., mean±SD, n=3.
Setting [18] is: Kleibsella pneumonia, microdilution, overnight 37° C., mean±SD, n=3.
Where [19] appears, read: S. pneumonia, microdilution, overnight 37° C., mean±SD, n=3.

We go through two molecules from patent US12202868B1, “Stapled and specifically targeted antimicrobial peptide” (KING SAUD UNIVERSITY, priority 2024, dated 2025).

Values after ≈ are worked out from the molar mass of the structure shown. Read-outs that look alike come from different tables or passages of the source. Positions of bridges follow the written chain, without caps; N, C: chain ends. Non-standard residues stand in square brackets, D forms with d. Residues, ends and D or L forms follow the SMILES beside them. S5 = C=CCCC[C@](C)(N)C(=O)O

The zone of inhibition is the extent of the growth-free halo in a diffusion test.

For `NC[C@H]1O[C@H](O[C@H]2[C@H](O)[C@@H](O[C@H]3O[C@H](CO)[C@@H](O)[C@H](N)[C@H]3O)[C@H](N)C[C@@H]2N)[C@H](O)[C@@H](O)[C@@H]1O` [Kanamycin], the MIC in the data set on S. pneumonia [1] was found to be 1.67 ± 0.42 mg/L (≈ 3.45 µM); with B. subtilis [3] it was 1.67 ± 0.42 mg/L (≈ 3.45 µM); in the data set with S. aureus [4], 1.67 ± 0.42 mg/L (≈ 3.45 µM); in the data set on E. coli [6] it was 1.46 ± 0.55 mg/L (≈ 3.01 µM); with Kleibsella pneumonia [7], 1.25 mg/L (≈ 2.58 µM); in the data set with S. mutans [8] it was 1.04 ± 0.21 mg/L (≈ 2.15 µM). Also, the “Minimum Inhibitory concentration” value was 1.46 ± 0.55 µg/mL in the data set with E. coli [2] (setting [15]); 1.67 ± 0.42 µg/mL with B. subtilis [5] (setting [16]); 1.04 ± 0.21 µg/mL with S. mutans [9] (setting [17]); 1.25 ± 0.00 µg/mL with Kleibsella pneumonia [10] (setting [18]); 1.67 ± 0.42 µg/mL in the data set with S. pneumonia [12] (setting [19]). The Zone of inhibition was determined as 16.07 ± 0.45 mm with Staphylococcus aureus; 15.70 ± 0.4 mm in the data set with Streptococcus pneumonia; 18.37 ± 0.58 mm with Streptococcus mutans; 14.90 ± 0.25 mm in the data set on Escherichia coli; 16.40 ± 0.46 mm in the data set with Bacillus subtilis; 15.10 ± 0.74 mm with Kleibsella pneumonia [11]. The zone of inhibition at 10 µg/mL in the data set with Staphylococcus aureus (Staphylococcus aureus) came to 16.1 ± 0.45 mm; with Streptococcus pneumonia (Streptococcus pneumoniae), 15.7 ± 0.4 mm; in the data set on Streptococcus mutans (Streptococcus mutans), 18.4 ± 0.58 mm; in the data set with Escherichia coli (Escherichia coli), 14.9 ± 0.25 mm; with Bacillus subtilis (Bacillus subtilis) it was 16.4 ± 0.46 mm; in the data set with Kleibsella pneumonia [11] it was 15.1 ± 0.74 mm.

Take `CC[C@H](C)[C@H](NC(=O)[C@H](CCCNC(=N)N)NC(=O)[C@H](CCCCN)NC(=O)[C@]1(C)CCCC=CCCC[C@](C)(NC(=O)[C@H](CCCCN)NC(=O)[C@H](CCC(=O)O)NC(=O)[C@H](CCCCN)NC(=O)[C@H](CO)NC(=O)[C@H](CCCCN)NC(=O)[C@H](CCCNC(=N)N)NC(=O)[C@H](Cc2ccccc2)NC(=O)[C@H](Cc2ccccc2)NC(=O)CNC(=O)CNC(=O)[C@H](CC(N)=O)NC(=O)[C@H](CCCNC(=N)N)NC(=O)[C@H](Cc2ccccc2)NC(=O)[C@@H](NC(=O)[C@H](C)NC(=O)[C@@H](NC(=O)[C@H](CC(=O)O)NC(=O)[C@H](CCCCN)NC(=O)[C@H](CCC(=O)O)NC(=O)CNC(=O)[C@@H](NC(=O)[C@H](CO)NC(=O)[C@@H]2CCCN2C(=O)[C@@H](N)CC(C)C)[C@@H](C)O)[C@@H](C)O)C(C)C)C(=O)NCC(=O)N[C@@H](CCCCN)C(=O)N[C@@H](CCC(=O)O)C(=O)N1)C(=O)N[C@H](C(N)=O)C(C)C` [ssTAMP] (H-LPSTGEKDTAVFRNGGFFRKSKEK[S5]GKE[S5]KRIV-NH2; staple 25-29; N-terminus assumed): the “Minimum Inhibitory concentration” value in the data set with E. coli [2] came out at 5.21 ± 1.05 µg/mL; with E. coli [2] (setting [15]) it was 5.21 ± 1.05 µg/mL; in the data set with B. subtilis [5], 8.33 ± 2.08 µg/mL; in the data set on B. subtilis [5] (setting [16]), 8.33 ± 2.08 µg/mL; in the data set with S. aureus [14], 12.50 ± 0.000 µg/mL; with S. aureus [14] (S. aureus, microdilution, overnight 37° C., mean±SD, n=3), 12.50 ± 0.000 µg/mL. Further, the “Minimum Inhibitory concentration” value in the data set with S. mutans [9] was determined as 8.33 ± 2.08 µg/mL; with S. mutans [9] (setting [17]) it was 8.33 ± 2.08 µg/mL; in the data set with Kleibsella pneumonia [10] it was 5.21 ± 1.042 µg/mL; with Kleibsella pneumonia [10] (setting [18]), 5.21 ± 1.042 µg/mL; in the data set with S. pneumonia [12] it was 10.42 ± 2.08 µg/mL; with S. pneumonia [12] (setting [19]) it was 10.42 ± 2.08 µg/mL. The “IC50, cytotoxicity by MTT assay” value with A549 lung cancer cells came to 265.0 mg/L; in data set [13] it was 558.2 mg/L. Further, the cells viable result (in the data set on A549 lung cancer cells (250 μg/ml); in data set [13] (250 μg/ml)) was “more than 50%” each time. In addition, the Zone of inhibition in the data set with Staphylococcus aureus came to 9.60±0.32 mm; in the data set with Streptococcus pneumonia, 20.17±0.72 mm; in the data set on Streptococcus mutans, 22.23±1.39 mm; in the data set on Escherichia coli, 24.30±1.08 mm; with Bacillus subtilis, 20.63±0.85 mm; in the data set on Kleibsella pneumonia [11], 23.47±1.40 mm.
